Measurements: patent US8530382B2, “Anthranilic diamide compositions for propagule coating” (E I du Pont de Nemours and Company, priority 2009, dated 2013)

Experiments:
[1] = tested on: 2nd instar larvae of Spodoptera frugiperda; assay: Laboratory test, 2nd instar larvae of Spodoptera frugiperda on treated soybean leaves; format: in vivo; settings: within 96 h
[2] = tested on: 2nd instar larvae of Spodoptera frugiperda; assay: Laboratory test, 2nd instar larvae of Spodoptera frugiperda on maize leaves; format: in vivo; settings: within 72 h

Row | Compound | Concentration needed to achieve 50% mortality, relative to the concentration of Compound 2 [1] | Concentration in leaf tissue needed to achieve 100% mortality [2] | Concentration in leaf tissue resulting in 50% mortality [2]
1 | CNC(=O)c1cc(C#N)cc(C)c1NC(=O)c1cc(Br)nn1-c1ncccc1Cl [Compound 1, 3-bromo-1-(3-chloro-2-pyridinyl)-N-[4-cyano-2-methyl-6-[(methylamino)carbonyl]phenyl]-1H-pyrazole-5-carboxamide] | 4-5 times greater |  | 
2 | CNC(=O)c1cc(Cl)cc(C)c1NC(=O)c1cc(Br)nn1-c1ncccc1Cl [Compound 2, 3-bromo-N-[4-chloro-2-methyl-6-[(methylamino)carbonyl]phenyl]-1-(3-chloro-2-pyridinyl)-1H-pyrazole-5-carboxamide] |  | 0.037 μg per g of tissue | 0.033 μg per g of leaf tissue
